Experimental data from patent publication US8883797B2, “Metalloenzyme inhibitor compounds” (Viamet Pharmaceuticals, Inc., priority 2011, dated 2014).
Values after ≈ are worked out from the molar mass of the structure shown.

Columns and labels:
[1] = test system: Septoria tritici (ATCC 26517); test: Minimum Inhibitory Concentration (MIC) (Septoria tritici), CLSI-based microdilution; assay type: cell-based; details: Zymoseptoria tritici, ATCC26517, 168 h; S. tritici ATCC 26517; 50% growth reduction; 7 days at 22 °C; read-out: Septoria Rating (MIC)
Experimental: C. Minimum Inhibitory Concentration (MIC) (Septoria tritici) Compounds of the present disclosure were assessed for their ability to inhibit the growth of a common strain of the fungal plant pathogen Septoria tritici (ATCC 26517) using a procedure based on a Clinical and Laboratory Standards Institute (CLSI) microdilution assay protocol for filamentous fungi. Stock solutions of the test compounds and standards were prepared in DMSO at 6400 μg/mL. Each stock solution was used to prepare a 2-fold dilution series ranging from 16 to 0.016 μg/mL (total of 11 compound concentrations) in RPMI-1640 (Roswell Park Memorial Institute) medium containing 3-(N-morpholino)propanesulfonic acid (MOPS) buffer and 2% DMSO. A 100 μL aliquot of the dilutions was added to columns 1 (16 μg/mL compound) through 11 (0.016 μg/mL compound) of a 96-well microtiter plate. This format was replicated in a second row of the microtiter plate. Thus, each microtiter plate could include 11 concentrations of four test or control compounds replicated twice. A 100 μL aliquot of RPMI-1640/MOPS/2% DMSO medium was added to column 12 (no compound control) of the microtiter plate. A fresh culture of S. tritici was used to prepare a solution of approximately 5×10^4 colony-forming units per milliliter (cfu/mL) in RPMI/MOPS medium without DMSO. A 100 μL aliquot of this solution was added to all 96 wells in the microtiter plate. […] The assay plates were incubated at 22° C. for seven days in the dark without shaking. […] In each case of Table 3 the rating scale is as follows: […]

[2] = test system: Puccinia recondita tritici; test: Fungicidal activity vs. leaf rust on wheat plants (PUCCRT); assay type: in vivo, Puccinia recondita tritici=Puccinia triticina; details: 50 ppm spray on wheat (variety Yuma); inoculated the following day; severity evaluated 7-9 days later
From the text: D. Evaluation of Fungicidal Activity Vs. Leaf Rust (Causal Agent Puccinia recondita tritici=Puccinia triticina; Bayer Code PUCCRT).
Each pot contained 3-8 seedlings. These plants were sprayed until wet with the formulated test compounds. The compounds were formulated at 50 ppm in 10 vol. % acetone plus 90 vol. % Triton X water (deionized water 99.99 wt %+0.01 wt % Triton X100), giving a “formulated test compound.” Formulated test compounds were applied to plants using a turn table sprayer fitted with two opposing air atomization nozzles which delivered approximately 1500 L/ha of spray volume. On the following day, the leaves were inoculated with an aqueous spore suspension of Puccinia recondita tritici and the plants were kept in high humidity overnight to permit spores to germinate and infect the leaf. The plants were then transferred to a greenhouse until disease developed on untreated control plants. Disease severity was evaluated 7-9 days later, depending on the speed of disease development. Compounds 4(−), 9(+), 11, 13, 18, 21, 25, 26, 27, 28, 32, 34, 37, 38, 39, 42, 43, 48, 51, 52, 56, 57, and 59 were selected for testing against PUCCRT at 50 ppm. Compounds that provided >80% disease control at 50 ppm included 4(−), 9(+), 11, 13, 18, 21, 25, 26, 27, 28, 32, 34, 37, 38, 39, 42, 43, 48, 52, 56, and 57.

Row | SMILES | MIC [1] | disease control [2]
1 | OC(Cn1cnnn1)(c1ccc(F)cc1F)C(F)(F)c1ccc2cc(Cl)ccc2n1 (stereo not drawn) [4(−), 1-(6-Chloroquinolin-2-yl)-2-(2,4-difluorophenyl)-1,1-difluoro-3-(1H-tetrazol-1-yl)propan-2-ol] | ≤ 0.5 µg/mL | > 80%
2 | OC(Cn1cnnn1)(c1ccc(F)cc1F)C(F)(F)c1ccc2cc(Br)ccc2n1 (stereo not drawn) [9(+), 1-(6-Bromoquinolin-2-yl)-2-(2,4-difluorophenyl)-1,1-difluoro-3-(1H-tetrazol-1-yl)propan-2-ol] | ≤ 0.5 µg/mL | > 80%
3 | OC(Cn1cnnn1)(c1ccc(F)cc1F)C(F)(F)c1nc2ccc(Cl)cc2s1 (stereo not shown) [Compound 11, 1-(6-Chlorobenzo[d]thiazol-2-yl)-2-(2,4-difluorophenyl)-1,1-difluoro-3-(1H-tetrazol-1-yl)propan-2-ol] | ≤ 0.5 µg/mL | > 80%
4 | OC(Cn1cnnn1)(c1ccc(F)cc1F)C(F)(F)c1ccc(Br)s1 (stereo not shown) [Compound 13, 1-(5-Bromothiophen-2-yl)-2-(2,4-difluorophenyl)-1,1-difluoro-3-(1H-tetrazol-1-yl)propan-2-ol] | ≤ 0.5 µg/mL | > 80%
5 | OC(Cn1cnnn1)(c1ccc(F)cc1F)C(F)(F)c1ccc2cc(C(F)(F)F)ccc2n1 (stereo not shown) [Compound 18, 2-(2,4-Difluorophenyl)-1,1-difluoro-3-(1H-tetrazol-1-yl)-1-(6-(trifluoromethyl)quinolin-2-yl)propan-2-ol] | ≤ 0.5 µg/mL | > 80%
6 | OC(Cn1cnnn1)(c1ccc(F)cc1F)C(F)(F)c1ccc2cc(OC(F)(F)F)ccc2n1 (stereo not shown) [Compound 21, 2-(2,4-Difluorophenyl)-1,1-difluoro-3-(1H-tetrazol-1-yl)-1-(6-(trifluoromethoxy)quinolin-2-yl)propan-2-ol] | ≤ 0.5 µg/mL | > 80%
7 | OC(Cn1cnnn1)(c1ccc(F)cc1F)C(F)(F)c1ccc2cc(C(F)F)ccc2n1 (stereo not shown) [Compound 25, 1-(6-(Difluoromethyl)quinolin-2-yl)-2-(2,4-difluorophenyl)-1,1-difluoro-3-(1H-tetrazol-1-yl)propan-2-ol] | ≤ 0.5 µg/mL | > 80%
8 | Cc1ccc2nc(C(F)(F)C(O)(Cn3cnnn3)c3ccc(F)cc3F)ccc2c1 (stereo not shown) [Compound 26, 2-(2,4-Difluorophenyl)-1,1-difluoro-1-(6-methylquinolin-2-yl)-3-(1H-tetrazol-1-yl)propan-2-ol] | ≤ 0.5 µg/mL | > 80%
9 | OC(Cn1cnnn1)(c1ccc(F)cc1F)C(F)(F)c1nc2ccc(Br)cc2s1 (stereo not shown) [Compound 27, 1-(6-Bromobenzo[d]thiazol-2-yl)-2-(2,4-difluorophenyl)-1,1-difluoro-3-(1H-tetrazol-1-yl)propan-2-ol] | ≤ 0.5 µg/mL | > 80%
10 | OC(Cn1ncnn1)(c1cc(F)ccc1F)C(F)(F)c1ccc2cc(Cl)ccc2n1 (stereo not shown) [Compound 28, 1-(6-Chloroquinolin-2-yl)-2-(2,5-difluorophenyl)-1,1-difluoro-3-(2H-tetrazol-2-yl)propan-2-ol] | ≤ 0.5 µg/mL | > 80%
11 | OC(Cn1cnnn1)(c1ccc(F)cc1)C(F)(F)c1ccc2cc(Cl)ccc2n1 (stereo not shown) [Compound 32, 1-(6-Chloroquinolin-2-yl)-1,1-difluoro-2-(4-fluorophenyl)-3-(1H-tetrazol-1-yl)propan-2-ol] | ≤ 0.5 µg/mL | > 80%
12 | OC(Cn1cnnn1)(c1ccc(Cl)cc1F)C(F)(F)c1cnc2cc(Cl)ccc2n1 (stereo not shown) [Compound 34, 2-(4-Chloro-2-fluorophenyl)-1-(6-chloroquinoxalin-2-yl)-1,1-difluoro-3-(1H-tetrazol-1-yl)propan-2-ol] | ≤ 0.5 µg/mL | > 80%
13 | OC(Cn1cnnn1)(c1ccc(F)cc1F)C(F)(F)c1cc2ccc(Cl)cc2cn1 (stereo not shown) [Compound 37, 1-(7-Chloroisoquinolin-3-yl)-2-(2,4-difluorophenyl)-1,1-difluoro-3-(1H-tetrazol-1-yl)propan-2-ol] | ≤ 0.5 µg/mL | > 80%
14 | OC(Cn1cnnn1)(c1ccc(F)cc1F)C(F)(F)c1cnc2cc(Br)ccc2n1 (stereo not shown) [Compound 38, 1-(6-Bromoquinoxalin-2-yl)-2-(2,4-difluorophenyl)-1,1-difluoro-3-(1H-tetrazol-1-yl)propan-2-ol] | ≤ 0.5 µg/mL | > 80%
15 | OC(Cn1cnnn1)(c1ccc(F)cc1F)C(F)(F)c1cnc(-c2ccc(OC(F)F)cc2)cn1 (stereo not shown) [Compound 39, 1-(5-(4-(Difluoromethoxy)phenyl)pyrazin-2-yl)-2-(2,4-difluorophenyl)-1,1-difluoro-3-(1H-tetrazol-1-yl)propan-2-ol] | ≤ 0.5 µg/mL | > 80%
16 | OC(Cn1cnnn1)(c1ccc(F)cc1F)C(F)(F)c1cnc(-c2ccc(OC(F)(F)F)cc2)cn1 (stereo not shown) [Compound 42, 2-(2,4-Difluorophenyl)-1,1-difluoro-3-(1H-tetrazol-1-yl)-1-(5-(4-(trifluoromethoxy)phenyl)pyrazin-2-yl)propan-2-ol] | ≤ 0.5 µg/mL | > 80%
17 | OC(Cn1ncnn1)(c1ccc(F)cc1F)C(F)(F)c1cnc(C#Cc2ccc(F)cc2)cn1 (stereo not shown) [Compound 51, 2-(2,4-difluorophenyl)-1,1-difluoro-1-(5-((4-fluorophenyl)ethynyl)pyrazin-2-yl)-3-(2H-tetrazol-2-yl)propan-2-ol] | 1.5 to 4 µg/mL (≈ 3.18 to 8.47 µM) | 
18 | OC(Cn1ncnn1)(c1ccc(F)cc1F)C(F)(F)c1cnc(CCc2ccc(F)cc2)cn1 (stereo not shown) [Compound 53, 2-(2,4-Difluorophenyl)-1,1-difluoro-1-(5-(4-fluorophenethyl)pyrazin-2-yl)-3-(2H-tetrazol-2-yl)propan-2-ol] | 1.5 to 4 µg/mL (≈ 3.15 to 8.4 µM) | 
19 | OC(Cn1cnnn1)(c1ccc(F)cc1F)C(F)(F)c1cnc2cc(OC(F)(F)F)ccc2n1 (stereo not shown) [Compound 54, 2-(2,4-Difluorophenyl)-1,1-difluoro-3-(1H-tetrazol-1-yl)-1-(6-(trifluoromethoxy)quinoxalin-2-yl)propan-2-ol] | 1.5 to 4 µg/mL (≈ 3.07 to 8.19 µM) | 
20 | OC(Cn1cnnn1)(c1ccc(F)cc1F)C(F)(F)c1cnc2cc(F)ccc2n1 (stereo not shown) [Compound 55, 2-(2,4-Difluorophenyl)-1,1-difluoro-1-(6-fluoroquinoxalin-2-yl)-3-(1H-tetrazol-1-yl)propan-2-ol] | 1.5 to 4 µg/mL (≈ 3.55 to 9.47 µM) | 
21 | OC(Cn1cnnn1)(c1ccc(F)cc1F)C(F)(F)c1ccc(-c2ccc(F)cc2)nn1 (stereo not shown) [Compound 58, 2-(2,4-Difluorophenyl)-1,1-difluoro-1-(6-(4-fluorophenyl)pyridazin-3-yl)-3-(1H-tetrazol-1-yl)propan-2-ol] | 1.5 to 4 µg/mL (≈ 3.35 to 8.92 µM) | 
22 | C=Cc1ccc2nc(C(F)(F)C(O)(Cn3cnnn3)c3ccc(F)cc3F)cnc2c1 (stereo not shown) [Compound 59, 2-(2,4-Difluorophenyl)-1,1-difluoro-3-(1H-tetrazol-1-yl)-1-(6-vinylquinoxalin-2-yl)propan-2-ol] | 0.5 to 1.5 µg/mL (≈ 1.16 to 3.49 µM) | 
23 | OC(Cn1cnnn1)(c1ccc(F)cc1F)C(F)(F)c1ccc(-c2ccc(OCC(F)(F)F)cc2)cc1 (stereo not shown) [Compound 60, 2-(2,4-Difluorophenyl)-1,1-difluoro-3-(1H-tetrazol-1-yl)-1-(4′-(2,2,2-trifluoroethoxy)biphenyl-4-yl)propan-2-ol] | 1.5 to 4 µg/mL (≈ 2.85 to 7.6 µM) | 
24 | OC(Cn1cnnn1)(c1ccc(F)cc1F)C(F)(F)c1ccc(-c2ccc(F)cc2)cc1 (stereo not shown) [Compound 61, 2-(2,4-Difluorophenyl)-1,1-difluoro-1-(4′-fluoro-[1,1′-biphenyl]-4-yl)-3-(1H-tetrazol-1-yl)propan-2-ol] | 0.5 to 1.5 µg/mL (≈ 1.12 to 3.36 µM) | 
